How the values were obtained:
human TRPV1 [1] = target: T1, human TRPV1 (Homo sapiens (Human), UniProt Q8NER1); assay: Capsaicin Activation Assay (intracellular Ca2+, FLIPR); type: cell-based; details: recombinant HEK293 cells expressing hTRPV1, 50 nM capsaicin
Summary of the method: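 Stably transfected HEK293 cells expressing human TRPV1 cDNA, plated the day before in poly-D-lysine plates. Compounds serially diluted from 10 mM DMSO stocks; intracellular Ca2+ fluorescence read on FLIPR at 1 to 5 second intervals.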

human TRPV1 [2] = target: T1, human TRPV1; assay: Acid Activation Assay (pH 5.0, intracellular Ca2+, FLIPR); type: cell-based; details: percentage of the maximal pH 5.0-induced response remaining; recombinant HEK293 hTRPV1 cells; maximum concentration tested 37.5 μM
Summary of the method: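 HEK293 cells stably expressing recombinant hTRPV1, loaded with Calcium-4 dye 90-120 min at 25° C. Compounds added over a 12-point half-log range (top 37.5 μM), then pH 5.0 DPBS/MES challenge after 3 min; FLIPR peak fluorescence over baseline given as % of maximal pH 5.0 response.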

T1 sequence (Q8NER1 whole entry): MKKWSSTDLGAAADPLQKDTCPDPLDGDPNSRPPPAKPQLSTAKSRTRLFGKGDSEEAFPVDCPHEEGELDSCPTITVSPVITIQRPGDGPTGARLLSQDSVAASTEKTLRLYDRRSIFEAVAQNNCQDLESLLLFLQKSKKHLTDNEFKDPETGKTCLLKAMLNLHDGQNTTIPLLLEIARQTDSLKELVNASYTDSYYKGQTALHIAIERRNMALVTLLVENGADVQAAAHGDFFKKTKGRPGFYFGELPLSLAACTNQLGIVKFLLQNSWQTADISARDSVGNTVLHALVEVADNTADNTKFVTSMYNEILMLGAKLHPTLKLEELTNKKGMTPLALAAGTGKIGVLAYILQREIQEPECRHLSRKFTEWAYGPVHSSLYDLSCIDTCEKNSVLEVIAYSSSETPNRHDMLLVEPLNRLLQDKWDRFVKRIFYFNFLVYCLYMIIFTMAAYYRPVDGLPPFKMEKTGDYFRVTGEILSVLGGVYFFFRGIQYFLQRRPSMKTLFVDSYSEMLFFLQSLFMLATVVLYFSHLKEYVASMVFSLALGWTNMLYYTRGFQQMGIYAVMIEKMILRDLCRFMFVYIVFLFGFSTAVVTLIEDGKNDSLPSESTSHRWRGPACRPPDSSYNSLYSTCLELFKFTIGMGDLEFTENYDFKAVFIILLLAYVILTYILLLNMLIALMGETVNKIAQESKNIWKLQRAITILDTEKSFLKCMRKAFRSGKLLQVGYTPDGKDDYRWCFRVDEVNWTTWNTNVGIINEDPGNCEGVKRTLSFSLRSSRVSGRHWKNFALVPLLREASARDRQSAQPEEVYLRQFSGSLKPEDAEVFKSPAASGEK

Row | Structure (SMILES) | IC50 (human TRPV1 [1]) | human TRPV1 H^+ (max % remain) (human TRPV1 [2])
1 | CC1(C)C[C@H](NC(=O)Nc2ccc3c(c2)NC(=O)CO3)c2cc(F)ccc2O1 [Example 123, 1-[(4S)-6-fluoro-2,2-dimethyl-3,4-dihydro-2H-chromen-4-yl]-3-(3-oxo-3,4-dihydro-2H-1,4-benzoxazin-6-yl)urea] | > 38000 nM | 94%
2 | C[C@@]1(C(F)F)C[C@@H](NC(=O)Nc2ccc3c(c2)NC(=O)CO3)c2ccccc2O1 [Example 130, 1-[(2S,4R)-2-(difluoromethyl)-2-methyl-3,4-dihydro-2H-chromen-4-yl]-3-(3-oxo-3,4-dihydro-2H-1,4-benzoxazin-6-yl)urea] | 1000 nM | 98%
3 | CN1Cc2ccc(NC(=O)N[C@@H]3C[C@](C)(C(F)F)Oc4ccccc43)cc2NC1=O [Example 207, 1-[(2R,4R)-2-(difluoromethyl)-2-methyl-3,4-dihydro-2H-chromen-4-yl]-3-(3-methyl-2-oxo-1,2,3,4-tetrahydroquinazolin-7-yl)urea] | 330 nM | 57%
4 | CN1Cc2ccc(NC(=O)N[C@@H]3CCOc4cc(C(F)(F)F)ccc43)cc2NC1=O [Example 201, 1-(3-methyl-2-oxo-1,2,3,4-tetrahydroquinazolin-7-yl)-3-[(4R)-7-(trifluoromethyl)-3,4-dihydro-2H-chromen-4-yl]urea] | 130 nM | 45%
5 | O=C1COc2ccc(NC(=O)N[C@@H]3CCOc4cc(OC(F)(F)F)ccc43)cc2N1 [Example 115, 1-(3-oxo-3,4-dihydro-2H-1,4-benzoxazin-6-yl)-3-[(4R)-7-(trifluoromethoxy)-3,4-dihydro-2H-chromen-4-yl]urea] | > 38000 nM | 91%
6 | CN1C(=O)NCc2c(NC(=O)N[C@@H]3C[C@@](C)(CF)Oc4ccccc43)cccc21 [Example 164, 1-[(2S,4R)-2-(fluoromethyl)-2-methyl-3,4-dihydro-2H-chromen-4-yl]-3-(1-methyl-2-oxo-1,2,3,4-tetrahydroquinazolin-5-yl)urea] | 120 nM | 35%
7 | CC1(C)C[C@@H](NC(=O)Nc2ccc3c(c2)NC(=O)CC3)c2cccc(F)c2O1 [Example 219, 1-[(4R)-8-fluoro-2,2-dimethyl-3,4-dihydro-2H-chromen-4-yl]-3-(2-oxo-1,2,3,4-tetrahydroquinolin-7-yl)urea] | 56 nM | 29%
8 | CN1C(=O)CCc2ccc(NC(=O)N[C@@H]3CC(C)(C)Oc4nc(C(F)(F)F)ccc43)cc21 [Example 295, 1-[(4R)-2,2-dimethyl-7-(trifluoromethyl)-3,4-dihydro-2H-pyrano[2,3-b]pyridin-4-yl]-3-(1-methyl-2-oxo-1,2,3,4-tetrahydroquinolin-7-yl)urea] | 99 nM | 67%
9 | COCCN(C)C1Cc2ccc(NC(=O)N[C@@H]3CC(C)(C)Oc4cc(F)ccc43)cc2NC1=O (stereo partly drawn) [Example 305, 1-[(4R)-7-fluoro-2,2-dimethyl-3,4-dihydro-2H-chromen-4-yl]-3-{3-[(2-methoxyethyl)(methyl)amino]-2-oxo-1,2,3,4-tetrahydroquinolin-7-yl}urea] | 2000 nM | 26%
10 | O=C1CCc2ccc(NC(=O)N[C@@H]3CC(CF)(CF)Oc4cc(C(F)(F)F)ccc43)cc2N1 [Example 320, 1-[(4R)-2,2-bis(fluoromethyl)-7-(trifluoromethyl)-3,4-dihydro-2H-chromen-4-yl]-3-(2-oxo-1,2,3,4-tetrahydroquinolin-7-yl)urea] | 12 nM | 80%
11 | CN1C(=O)NCc2c(NC(=O)N[C@@H]3CC4(CCCC4)Oc4ccccc43)cccc21 [Example 15, 1-[(4R)-3,4-dihydrospiro[chromene-2,1′-cyclopentan]-4-yl]-3-(1-methyl-2-oxo-1,2,3,4-tetrahydroquinazolin-5-yl)urea] | 21 nM | 40%
12 | CN1C(=O)CCc2ccc(NC(=O)N[C@@H]3CC(C)(C)Oc4ccc(F)cc43)cc21 [Example 274, 1-[(4R)-6-fluoro-2,2-dimethyl-3,4-dihydro-2H-chromen-4-yl]-3-(1-methyl-2-oxo-1,2,3,4-tetrahydroquinolin-7-yl)urea] | 53 nM | 81%
13 | O=C(Nc1ccc2c(c1)NC(=O)N(CCO)C2)N[C@@H]1CCOc2ccccc21 [Example 308, 1-[(4R)-3,4-dihydro-2H-chromen-4-yl]-3-[3-(2-hydroxyethyl)-2-oxo-1,2,3,4-tetrahydroquinazolin-7-yl]urea] | 68 nM | 3%
14 | Cn1c(=O)ccc2c(NC(=O)N[C@@H]3CC(CF)(CF)Oc4cc(Cl)ccc43)cccc21 [Example 20, 1-[(4R)-7-chloro-2,2-bis(fluoromethyl)-3,4-dihydro-2H-chromen-4-yl]-3-(1-methyl-2-oxo-1,2-dihydroquinolin-5-yl)urea] | 58 nM | 34%
15 | CN1C(=O)CCc2ccc(NC(=O)N[C@@H]3CC(C)(C)Oc4cc(F)ccc43)cc21 [Example 253, 1-[(4R)-7-fluoro-2,2-dimethyl-3,4-dihydro-2H-chromen-4-yl]-3-(1-methyl-2-oxo-1,2,3,4-tetrahydroquinolin-7-yl)urea] | 110 nM | 31%
16 | CCC1(CC)C[C@@H](NC(=O)Nc2ccc3c(c2)NC(=O)N(CCO)C3)c2cccc(F)c2O1 [Example 44, 1-[(4R)-2,2-diethyl-8-fluoro-3,4-dihydro-2H-chromen-4-yl]-3-[3-(2-hydroxyethyl)-2-oxo-1,2,3,4-tetrahydroquinazolin-7-yl]urea] | 65 nM | 3%
17 | O=C1CCc2ccc(NC(=O)N[C@@H]3CC(CF)(CF)Oc4c(F)cc(F)cc43)cc2N1 [Example 214, 1-[(4R)-6,8-difluoro-2,2-bis(fluoromethyl)-3,4-dihydro-2H-chromen-4-yl]-3-(2-oxo-1,2,3,4-tetrahydroquinolin-7-yl)urea] | 180 nM | 40%
18 | CCC1(CC)C[C@@H](NC(=O)Nc2cccc3c2CNC(=O)N3C)c2cc(F)ccc2O1 [Example 155, 1-[(4R)-2,2-diethyl-6-fluoro-3,4-dihydro-2H-chromen-4-yl]-3-(1-methyl-2-oxo-1,2,3,4-tetrahydroquinazolin-5-yl)urea] | 16 nM | 20%
19 | CCCC1(CCC)C[C@@H](NC(=O)Nc2ccc3c(c2)NC(=O)N(CCO)C3)c2cc(F)ccc2O1 [Example 310, 1-[(4R)-6-fluoro-2,2-dipropyl-3,4-dihydro-2H-chromen-4-yl]-3-[3-(2-hydroxyethyl)-2-oxo-1,2,3,4-tetrahydroquinazolin-7-yl]urea] | 190 nM | 2%
20 | Cn1c(=O)ccc2c(NC(=O)N[C@@H]3C[C@@](C)(CF)Oc4cc(Cl)ccc43)cccc21 [Example 41, 1-[(2S,4R)-7-chloro-2-(fluoromethyl)-2-methyl-3,4-dihydro-2H-chromen-4-yl]-3-(1-methyl-2-oxo-1,2-dihydroquinolin-5-yl)urea] | 12 nM | 74%
21 | C[C@@]1(CF)C[C@@H](NC(=O)Nc2ccc3c(c2)NC(=O)N(CCO)C3)c2ccc(Cl)cc2O1 [Example 59, 1-[(2S,4R)-7-chloro-2-(fluoromethyl)-2-methyl-3,4-dihydro-2H-chromen-4-yl]-3-[3-(2-hydroxyethyl)-2-oxo-1,2,3,4-tetrahydroquinazolin-7-yl]urea] | 1500 nM | 2%
22 | COCC1(COC)C[C@@H](NC(=O)Nc2ccc3c(c2)N(C)C(=O)CC3)c2cc(F)ccc2O1 [Example 279, 1-[(4R)-6-fluoro-2,2-bis(methoxymethyl)-3,4-dihydro-2H-chromen-4-yl]-3-(1-methyl-2-oxo-1,2,3,4-tetrahydroquinolin-7-yl)urea] | 510 nM | 50%
23 | CC1(C)C[C@@H](NC(=O)Nc2ccc3c(c2)NC(=O)CC3)c2ccc(F)c(Cl)c2O1 [Example 233, 1-[(4R)-8-chloro-7-fluoro-2,2-dimethyl-3,4-dihydro-2H-chromen-4-yl]-3-(2-oxo-1,2,3,4-tetrahydroquinolin-7-yl)urea] | 350 nM | 37%
24 | CC1(C)C[C@@H](NC(=O)Nc2ccc3c(c2)NC(=O)N(CCO)C3)c2ccc(C(F)(F)F)cc2O1 [Example 48, 1-[(4R)-2,2-dimethyl-7-(trifluoromethyl)-3,4-dihydro-2H-chromen-4-yl]-3-[3-(2-hydroxyethyl)-2-oxo-1,2,3,4-tetrahydroquinazolin-7-yl]urea] | 21 nM | 1%
25 | O=C1COc2ccc(NC(=O)N[C@@H]3CC(CF)(CF)Oc4c(F)cccc43)cc2N1 [Example 116, 1-[(4R)-8-fluoro-2,2-bis(fluoromethyl)-3,4-dihydro-2H-chromen-4-yl]-3-(3-oxo-3,4-dihydro-2H-1,4-benzoxazin-6-yl)urea] | 2000 nM | 99%
26 | CCC1(CC)C[C@@H](NC(=O)Nc2ccc3c(c2)NC(=O)CO3)c2ccc(C(F)(F)F)cc2O1 [Example 103, 1-[(4R)-2,2-diethyl-7-(trifluoromethyl)-3,4-dihydro-2H-chromen-4-yl]-3-(3-oxo-3,4-dihydro-2H-1,4-benzoxazin-6-yl)urea] | 110 nM | 75%
27 | CN1C(=O)NCc2c(NC(=O)NC3COc4cc(Cl)ccc4C3)cccc21 (stereo not drawn) [Example 161, 1-(7-chloro-3,4-dihydro-2H-chromen-3-yl)-3-(1-methyl-2-oxo-1,2,3,4-tetrahydroquinazolin-5-yl)urea] | 95 nM | 9%
